Tested on: excision wounds
Assay: Wound healing assay with CNF hydrogel formulation (Example IV)
Assay type: in vivo
Conditions: citric acid as cross-linking agent

Compound: O=C(O)CC(O)(CC(=O)O)C(=O)O [citric acid]
- effect on all parameters studied: does not have any effect

Reference: patent US20250241974A1, “COMPOSITIONS AND METHODS FOR WOUND HEALING” (University of Maine System Board of Trustees, priority 2024, published 2025)
